Tests used:
Jurkat cells = experiment: Cytotoxicity in parallel Alamar Blue plates (Jurkat cells); type: cell-based
Description: (§1) Compounds of the invention were tested for their T Cell stimulation (IL-2) in Jurkat cells with anti-CD3 and anti-CD28 co-stimulation. […] Cyclosporine A (control) was also run at a 0.5-Log 9-point titration, starting at 500 ng/mL. All compounds to be tested were dissolved in dimethyl sulfoxide. Cytotoxicity was evaluated with parallel Alamar Blue plates. Jurkat cells were seeded at 2×10^5 cells per well in 190 μL growth media in a 96-well plate, Cells were cultured in RPMI 1640 medium, 10% fetal bovine serum, and L-Glutamine with incubation at 37° C. with 5% carbon dioxide. After 1 hour of incubation the cells were stimulated with immobilized anti-CD3 (0.4m/well), anti-CD28 soluble (2 μg/mL). After 6 hours the sample supernatants were harvested and stored at −80° C. 50 μL samples of supernatant were tested for IL-2 using a Luminex® 1-plex assay.

IL-2 in Jurkat cells = experiment: T cell stimulation (IL-2) in Jurkat cells with anti-CD3 and anti-CD28 co-stimulation; type: cell-based; settings: 6 hours, Luminex 1-plex
Description: as §1

cyclophilin A = cyclophilin A (Homo sapiens, UniProt P62937); experiment: Cyclophilin binding competitive ELISA, cyclophilin A; settings: human recombinant cyclophilin
Sequence of cyclophilin A (P62937 whole entry): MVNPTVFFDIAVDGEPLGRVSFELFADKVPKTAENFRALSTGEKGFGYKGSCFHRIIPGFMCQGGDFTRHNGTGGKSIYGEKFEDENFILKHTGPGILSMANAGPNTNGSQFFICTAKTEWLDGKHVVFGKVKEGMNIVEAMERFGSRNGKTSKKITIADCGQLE
Description: (§2) The cyclophilin inhibition binding of compounds of the invention was determined using a competitive ELISA adapted from the methods described by Quesniaux et al. (Eur. J Immunol. 1987, Vol. 17, pages 1359-1365). Activated ester of succinyl spacers bound to D-Lys^8-cylosporine A (D-Lys^8-Cs) was coupled to bovine serum albumin (BSA) through D-lysyl residue in position 8. BSA was dissolved in 0.1 M borate buffer, pH 9.0 (4 mg in 1.4 ml). A hundredfold molar excess of D-Lys^8-Cs dissolved in dimethyl formamide (0.6 ml) was added dropwise to the BSA under vigorous stirring. […] After acetone precipitation of an aliquot of the conjugated protein, no covalently bound D-Lys^8-Cs remained in the acetone solution and the extent of cyclosporine covalent binding was calculated.
(§3) Microtiter Plates were coated with D-Lys^8-Cs-BSA conjugate ([…] in PBS for 24 hours at 4° C.). […] Cyclophilin was detected with anti-cyclophilin rabbit antiserum diluted in 1% BSA containing PBS and incubated overnight at 4° C. […] Bound rabbit antibodies were then detected by goat anti-rabbit IgG conjugated to alkaline phosphatase diluted in 1% BSA-PBS and allowed to incubate for 2 hours at 37° C. […] After incubation with 4-nitrophenyl phosphate (1 g/1 in diethanolamine buffer, pH 9.8) for 1 to 2 hours at 37° C., the enzymatic reaction was measured spectrophotometrically at 405 nm using a spectrophotometer.

cyclophilin B = cyclophilin B (Homo sapiens, UniProt P23284); experiment: Cyclophilin binding competitive ELISA, cyclophilin B; settings: human recombinant cyclophilin
Sequence of cyclophilin B (P23284 34-216): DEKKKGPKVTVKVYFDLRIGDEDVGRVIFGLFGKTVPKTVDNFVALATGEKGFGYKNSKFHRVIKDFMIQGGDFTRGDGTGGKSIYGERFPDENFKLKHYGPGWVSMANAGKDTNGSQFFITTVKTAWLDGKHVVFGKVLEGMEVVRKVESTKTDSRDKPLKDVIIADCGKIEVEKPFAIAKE
Description: as §2, §3

[1] = tested on: HCV RNA replicon ET (luc ubi neo/ET); settings: read-out: EC50 (effective concentration that reduced viral replication by 50%); HCV replicon ET line, LUC reporter, 72 hours
Excerpt: Compounds were examined in the human hepatoma cell line ET (lub ubi neo/ET), a HCV RNA replicon containing a stable luciferase (LUC) reporter. The HCV RNA replicon ET contains the 5′ end of HCV (with the HCV Internal Ribosome Entry Site (IRES) and the first few amino acids of the HCV core protein) which drives the production of a firefly luciferase (LUC), ubiquitin, and neomycin phosphotransferase (NeoR) fusion protein. Ubiquitin cleavage releases the LUC and NeoR proteins. The EMCV IRES element controls the translation of the HCV […] proteins NS3-NS5. […] At the 3′ end of the replicon is the authentic 3′ NTR of HCV. The activity of the LUC reporter is directly proportional to HCV replication levels and positive-control antiviral compounds produce a reproducible antiviral response using the LUC endpoint.
The activity of the LUC reporter is directly proportional to HCV RNA levels in the human cell line.

cyclophilin D = cyclophilin D (Homo sapiens, UniProt P30405); experiment: Cyclophilin binding competitive ELISA, cyclophilin D; settings: human recombinant cyclophilin
Sequence of cyclophilin D (P30405 30-207): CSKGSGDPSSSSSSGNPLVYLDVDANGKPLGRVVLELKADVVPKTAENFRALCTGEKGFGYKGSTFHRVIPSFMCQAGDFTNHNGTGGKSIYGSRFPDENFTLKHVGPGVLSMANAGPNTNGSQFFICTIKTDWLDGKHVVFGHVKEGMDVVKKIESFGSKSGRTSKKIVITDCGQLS
Description: as §2, §3

[2] = tested on: mitochondrial permeability transition (MPT); experiment: Mitochondrial permeability transition: Ca2+-induced swelling of rat liver mitochondria; type: biochemical; settings: swelling induced by 150 micromolar Ca2+, compound added 5 minutes before, read-out: EC50 (inhibition of mitochondrial swelling)
Description: Mitochondrial permeability transition (MPT) was determined by measuring swelling of the mitochondria induced by Ca^2+. The procedure was adapted from the method described by Blattner et al, Analytical Biochem, Volume 295, page 220 (2001). Mitochondria were prepared from rat livers, which had been perfused with phosphate-buffered saline (PBS) to remove blood, using standard methods that utilized gentle homogenization in sucrose based buffer and then differential centrifugation to first remove cellular debris and then to pellet the mitochondria. Swelling was induced by 150 micromolar Ca^2+ (added from a concentrated solution of calcium chloride) and was monitored by measuring the scattering at 535-540 nm. Representative compounds were added 5 minutes before swelling was induced. EC50 were determined by comparing swelling with and without the compounds of the invention.

C/C=C/C[C@@H](C)[C@@H](O)[C@H]1C(=O)N[C@@H](CC)C(=O)N(C)CC(=O)N(C)[C@@H](CC(C)(C)OCc2ccccc2)C(=O)N[C@@H](C(C)C)C(=O)N(C)[C@@H](CC(C)C)C(=O)N[C@@H](C)C(=O)N[C@H](C)C(=O)N(C)[C@@H](CC(C)C)C(=O)N(C)[C@@H](CC(C)C)C(=O)N(C)[C@@H](C(C)C)C(=O)N1C [Compound A, [4′-Benzyloxy-N-methylleucine]^4cyclosporine A]
Cytotoxicity (Jurkat cells): absence of cytotoxicity | IL-2 activity EC50 (IL-2 in Jurkat cells): 0.043 µg/mL | cyclophilin A binding value (cyclophilin A): ≤ 98 ng/mL | cyclophilin B binding value (cyclophilin B): 102 ng/mL | EC50 [1]: 0.41 µM | cyclophilin D binding value (cyclophilin D): 124 ng/mL | EC50 [2]: < 10 µM
